# Values of other authors as cited in article PMC12308805, “Ultrahigh-Throughput Virtual Screening Strategies against PPI Targets: A Case Study of STAT Inhibitors” (Journal of Chemical Information and Modeling, 2025).
# Ends that are not written are not given here. Peptide text beside a SMILES is read from it. * marks the point of attachment. X1 = O=C(c1cc2cc(OP(=O)(O)O)ccc2[nH]1)*
# System: STAT3
# Details: cited from earlier work
row,Compound,Type (known STAT3 active)
1,CC(C)C[C@H](NC(=O)c1cc2cc(OP(=O)(O)O)ccc2[nH]1)C(=O)N1CCC[C@H]1C(=O)N[C@@H](CCC(N)=O)C(=O)N[C@H](C(N)=O)[C@@H](C)O [CHEMBL485921] (X1-LPQT-NH2),Active
2,CC(C)C[C@H](NC(=O)/C=C/c1ccc(OP(=O)(O)O)cc1)C(=O)N1CCC[C@H]1C(=O)NCCCC(N)=O [CHEMBL573048],Active

# Same assay, conditions: sheet 6QHD_actives_decoys, retrospective screening set for STAT3 SH2 domain (PDB 6QHD); decoys are presumed inactives, not tested; ref DUD-E; cited from earlier work
row,Compound,Type
1,CCOC(=O)C1=C(C)N(CCOC)C(=O)/C1=C\c1ccc(CNC(=O)C(=O)Nc2ccc(C(=O)OCC)cc2)o1 [Decoy951],Inactive (Decoy)
2,COc1cc(/C=N/NC(=O)CSc2nnc(-c3cccc([N+](=O)[O-])c3)n2N)c([N+](=O)[O-])cc1O [Decoy787],Inactive (Decoy)
3,CC(C)(C)NS(=O)(=O)c1ccc(NC(=O)CSc2nnc(N/N=C/c3cccc(O)c3)n2N)cc1 [Decoy849],Inactive (Decoy)
4,Cc1nnc(/N=C(\O)CSc2nnc(NN=C(Cc3ccccc3)Cc3ccccc3)n2N)s1 [Decoy811],Inactive (Decoy)
5,O=C(O)C[C@H](NS(=O)(=O)c1cc(S(=O)(=O)N[C@@H](CC(=O)O)c2ccccc2)c2cccc3c2c1NC3=O)c1ccccc1 [Decoy893],Inactive (Decoy)
6,COC(=O)c1sc(NC(=O)CCCS(=O)(=O)c2nc(-c3ccc(OC)c(OC)c3)cc(C(F)(F)F)n2)c(C(N)=O)c1C [Decoy915],Inactive (Decoy)
7,VAITVLVK [Decoy793],Inactive (Decoy)
8,CCCN[C@H](c1cc(F)ccc1Cl)c1cc(C)ccc1Br [Decoy850],Inactive (Decoy)
9,COc1ccc(N/C(=N/C(=O)c2ccc(OC)c(OC)c2)NCCc2c(C)nn(C)c2C)cc1OC [Decoy827],Inactive (Decoy)
10,CC(=O)c1cccc(S(=O)(=O)NCCC(=O)Nc2ccc(S(=O)(=O)/N=C3\CCCCCN3)cc2)c1 [Decoy783],Inactive (Decoy)
11,CCOC(=O)c1c(NC(=O)c2cc(OC)c(OC)c(OC)c2)sc(C(=O)Nc2ccc(OC)cc2OC)c1C [Decoy754],Inactive (Decoy)
12,COc1cc(C(=O)OC[C@]2(O)CO[C@H](OC[C@@H]3O[C@@H](Oc4c(OC)cc(CO)cc4OC)[C@H](O)[C@H](O)[C@@H]3O)[C@@H]2O)cc(OC)c1O [Decoy800],Inactive (Decoy)
13,CS(=O)(=O)SCCNC(=O)[C@H](N)CCCCNC(=O)CCCCCNC(=O)CCCC[C@@H]1SC[C@H]2NC(=O)N[C@H]12 [Decoy749],Inactive (Decoy)
14,COc1cccc(/C=N/NC(=O)[C@H](C)Sc2nnc(S[C@H](C)C(=O)N/N=C/c3cccc(OC)c3OC)s2)c1OC [Decoy736],Inactive (Decoy)
15,CCc1ccc(NC(=O)CSC2=C(C#N)[C@H](c3ccco3)C(C(=O)Nc3ccc(S(N)(=O)=O)cc3)=C(C)N2)cc1 [Decoy855],Inactive (Decoy)
16,CCOc1ccc(-n2c(Cc3cc(=O)[nH]c(=O)[nH]3)nnc2SCC(=O)Nc2ccc(F)cc2)cc1 [Decoy796],Inactive (Decoy)
17,C[C@H](N[C@H](C)c1ccc(Cl)s1)c1ccc(Cl)c(Cl)c1Cl [Decoy730],Inactive (Decoy)
18,COc1ccccc1OCCNC[C@@H](O)Cn1c2ccccc2c2c(OC[C@@H](O)CNCCOc3ccccc3OC)cccc21 [Decoy936],Inactive (Decoy)
19,COc1cc(-c2ccc(NC(=O)c3ccc(OC)c(OC)c3)c(OC)c2)ccc1NC(=O)c1ccc(OC)c(OC)c1 [Decoy903],Inactive (Decoy)

# Same assay, conditions: sheet 6QHD_actives_decoys; known STAT3 actives of the retrospective screening set; ref ChEMBL / literature; cited from earlier work
row,Compound,Type (known STAT3 active)
1,NC(=O)CC[C@H](NC(=O)[C@@H]1Cc2cccc3c2N1C(=O)[C@@H](NC(=O)/C=C/c1ccc(OP(=O)(O)O)cc1)C=C3)C(=O)NCc1ccccc1 [CHEMBL508912],Active

# Same assay, conditions: sheet 6QHD_actives_decoys; retrospective screening set for STAT3 SH2 domain (PDB 6QHD); […]; ref DUD-E; cited from earlier work
row,Compound,Type
1,Nc1n(-c2ccccc2)c(=O)c(C(c2ccc([N+](=O)[O-])cc2)c2c([O-])[n+](-c3ccccc3)c(N)n(-c3ccccc3)c2=O)c([O-])[n+]1-c1ccccc1 [Decoy514],Inactive (Decoy)
2,CCOC(=O)C1=C(SC)S[C@@H](/C(C(=O)OCC)=C2/NN=C(c3ccccc3)O2)N=C1N [Decoy644],Inactive (Decoy)
3,Cc1ccc(S(=O)(=O)N[C@]2(C(F)(F)F)C(=O)Nc3c2c(=O)nc(O)n3-c2ccccc2)cc1 [Decoy629],Inactive (Decoy)
4,COc1cc(-n2c(O)c([C@H]3OC(=O)c4c3ccc(OC)c4OC)c(O)nc2=S)cc(OC)c1OC [Decoy716],Inactive (Decoy)

# Same assay, conditions: sheet 6QHD_actives_decoys; retrospective screening set for STAT3 SH2 domain (PDB 6QHD); decoys generated with DUD-E and presumed inactive, not tested; ref DUD-E; cited from earlier work
row,Compound,Type
1,C[C@H](CCC(=O)NCC(=O)NCCS(=O)(=O)O)[C@H]1CC[C@H]2[C@@H]3[C@H](O)C[C@@H]4C[C@H](O)CC[C@]4(C)[C@H]3C[C@H](O)[C@]12C [Decoy532],Inactive (Decoy)
2,CCOc1cc(/C=N/NC(=O)c2nnn(-c3nonc3N)c2CSC2=NCCS2)cc(Br)c1OCc1cccc(C)c1 [Decoy594],Inactive (Decoy)
3,COc1cc(NS(=O)(=O)c2ccc(NC(=O)c3cccc(COc4cccc(Cl)c4)c3)cc2)nc(OC)n1 [Decoy485],Inactive (Decoy)
4,CCOC(=O)c1ccc(NC(=O)CSc2ccc3nnc(CCNS(=O)(=O)c4ccc(OC)cc4)n3n2)cc1 [Decoy704],Inactive (Decoy)
5,CC(=O)N[C@H]1[C@H](O[C@H]2[C@H](O[C@H](C)C(=O)O)[C@@H](NC(C)=O)[C@@H](OC(C)=O)O[C@@H]2COC(C)=O)O[C@H](COC(C)=O)[C@@H](OC(C)=O)[C@@H]1OC(C)=O [Decoy458],Inactive (Decoy)
6,COC1=C(S[C@@H]2O[C@H](COC(C)=O)[C@@H](OC(C)=O)[C@H](OC(C)=O)[C@H]2OC(C)=O)C(=O)c2c(O)ccc(O)c2C1=O [Decoy719],Inactive (Decoy)
7,C[C@@H](OC(=O)CCC(=O)Nc1ccc(C(=O)OCC(=O)c2cccc([N+](=O)[O-])c2)cc1)C(=O)c1cccc(Cl)c1 [Decoy525],Inactive (Decoy)
8,Nn1c(SCC(=O)N/N=C/c2ccccc2OCc2ccccc2Cl)nnc1-c1ccncc1 [Decoy718],Inactive (Decoy)
9,CCCCCCCCCC(=O)O[C@@H]1[C@@H](O[C@@]2(CO)O[C@@H](CO)[C@@H](O)[C@H]2OC(=O)C(C)C)O[C@@H](CO)[C@@H](OC(=O)C(C)C)[C@H]1OC(=O)C(C)C [Decoy627],Inactive (Decoy)
10,CC1(C)NC(=O)N(C[C@@H](O)COc2ccc(-c3ccc(OC[C@H](O)CN4C(=O)NC(C)(C)C4=O)cc3)cc2)C1=O [Decoy539],Inactive (Decoy)
11,CCOC(=O)C1=C(CNc2cc(S(=O)(=O)N(CC)CC)ccc2OC)NC(=O)N[C@H]1c1cc(C)ccc1C [Decoy395],Inactive (Decoy)
12,CC(=O)O[C@@H]1[C@@H](O)[C@@H](O[C@@H](/C=N\N2CCOCC2)[C@@H](CO)O[C@H](O)/C=N/N2CCOCC2)O[C@@H](CO)[C@H]1O [Decoy660],Inactive (Decoy)
13,O=C(O)C[C@H](NC(=O)CN(CCN(CC(=O)O)CC(=O)N[C@@H](CC(=O)O)C(=O)O)CC(=O)O)C(=O)O [Decoy356],Inactive (Decoy)
14,O=P(O)(O)CCN1CCCN(CCP(=O)(O)O)CCN(CCP(=O)(O)O)CCCN(CCP(=O)(O)O)CC1 [Decoy548],Inactive (Decoy)
15,CC(=O)OC[C@@H]1O[C@H](n2c(=O)[nH]c(=O)c3n[nH]nc32)[C@@H](OC(C)=O)[C@H](OC(C)=O)[C@H]1OC(C)=O [Decoy545],Inactive (Decoy)
16,CC[C@H]1OC(=O)[C@H](C)[C@@H](O[C@H]2OC[C@@](C)(OC)[C@@H](O)[C@@H]2C)[C@@H](C)[C@@H](O[C@H]2O[C@H](C)C[C@H](N(C)C)[C@H]2O)[C@](C)(O)C[C@H](C)/C(=N/O)[C@@H](C)[C@@H](O)[C@@]1(C)O [Decoy596],Inactive (Decoy)
17,CCCCN(CC(=O)Nc1c(-c2ccccc2)c(C)nn1-c1ccc(OC)cc1)C(=O)c1ccc(OC)cc1OC [Decoy368],Inactive (Decoy)
18,COC(=O)c1ccc(S(=O)(=O)N(CCCO)Cc2cc3cc4c(cc3[nH]c2=O)OCCO4)cc1 [Decoy669],Inactive (Decoy)
19,[H]/N=C(N/C(N)=N\c1nc(C)c2cc(OC)ccc2n1)\C(C(=O)c1ccccc1)=C(/O)OCC [Decoy667],Inactive (Decoy)
20,COc1ccc([C@H]2Oc3c(OC)cc(CCCO)cc3[C@@H]2CO)cc1O[C@@H]1O[C@@H](CO)[C@@H](O)[C@@H](O)[C@@H]1O [Decoy527],Inactive (Decoy)
21,COc1cc([N+](=O)[O-])ccc1NC(=O)C[C@H]1N=C(N/C(N)=N/c2ccccc2C)N=C1O [Decoy615],Inactive (Decoy)
22,CC(=O)O[C@@H]1[C@@H](O)[C@@H](O[C@@H](/C=N\C23CN4CN(CN(C4)C2)C3)[C@@H](CO)O[C@H](O)/C=N/C23CN4CN(CN(C4)C2)C3)O[C@@H](CO)[C@H]1O [Decoy408],Inactive (Decoy)
23,Cc1cc(NS(=O)(=O)c2ccc(N/N=C(/C#N)C(=O)Nc3ccc(S(N)(=O)=O)cc3)cc2)no1 [Decoy483],Inactive (Decoy)
24,COC(=O)c1ccc(NC(=O)CSc2nc3ccc(NC(=O)CSc4nnc(-c5ccc(N)cc5)n4C)cc3s2)cc1 [Decoy435],Inactive (Decoy)
25,C=CCn1c(CNc2ccc(C)cc2)nnc1SCCC(=O)Nc1sc(C(=O)OCC)c(C)c1C#N [Decoy508],Inactive (Decoy)
26,O=C(COCCN1CCN([C@@H](c2ccccc2)c2ccc(Cl)cc2)CC1)O[C@@H]1O[C@@H](CO)[C@@H](O[C@@H]2O[C@@H](CO)[C@H](O)[C@H](O)[C@H]2O)[C@H](O)[C@H]1O [Decoy462],Inactive (Decoy)
27,CC[C@@H](c1nnnn1CCOC)N(CCc1ccc(OC)c(OC)c1)Cc1cc2c(C)cc(C)cc2[nH]c1=O [Decoy616],Inactive (Decoy)
28,COc1cc(/C=N/Nc2nnc(SCC(=O)NCCc3ccc(Cl)cc3)n2N)cc(OC)c1OC [Decoy559],Inactive (Decoy)
29,CCCNC(=O)CN1CCN(c2cc(C(=O)O)c3cc(NS(=O)(=O)c4cccs4)ccc3n2)CC1 [Decoy543],Inactive (Decoy)
30,C[C@@H]1O[C@@H](O[C@H]2[C@H](O[C@@H]3CC[C@@H]4C(=CC[C@@H]5[C@@]4(C)C(=O)C[C@]4(C)[C@H]([C@@]6(C)O[C@H](C(C)(C)O)CC6=O)[C@H](O)C[C@@]54C)C3(C)C)O[C@H](CO)[C@@H](O)[C@@H]2O)[C@H](O)[C@H](O)[C@H]1O [Decoy472],Inactive (Decoy)
